Experimental data taken from PubChem BioAssay AID1117319 (Southern Research Institute, 2015).
Records with an inconclusive call do not appear.

Each molecule was assayed against Virion infectivity factor (Human immunodeficiency virus type 1 group M subtype B (isolate BH10)) + Virion infectivity factor (Human immunodeficiency virus type 1 group M subtype B (isolate BRU/LAI)) + Virion infectivity factor (Human immunodeficiency virus type 1 group M subtype B (isolate PCV12)) + Virion infectivity factor (Human immunodeficiency virus type 1 group M subtype B (isolate HXB2)) + DNA dC->dU-editing enzyme APOBEC-3G (Homo sapiens) (UniProt P69720+P69721+P69722+P69723+Q9HC16) (assay: inhibitors of Vif binding to APOBEC3G peptide, primary screen, biochemical, TR-FRET, GST-Vif 1-94, biotin-A3G peptide, dose response retest (AID 1117319);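 also: Vif residues 1-94 fused to GST binding biotinylated APOBEC3G peptide 110-148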).

SMILES	IC50 [µM]
Cc1onc(-c2ccccc2Cl)c1C(=O)N1CCN(c2cccc(Cl)c2)CC1	95.4
CS(=O)(=O)N(CC(=O)Nc1ccc2c(c1)OCO2)Cc1ccccc1	94.7
CC(C)Nc1ccc(Nc2ccccc2)cc1	9.18
COc1ccc(N=C2S/C(=C\c3ccc(C)o3)C(=O)N2CC(C)C)cc1	39.7
O=C(O)C1Nc2ccc(Br)cc2C2C=CCC12 (stereo unspecified)	1.56
N=C1C=CC(=C(c2ccc(N)cc2)c2ccc(N)cc2)C=C1	3.43
Cc1nc2ccccc2n2c(O)c(CC(=O)O)cc12	30.2
CC(C)NC[C@@H](O)c1ccc(O)c(O)c1	4.93
CCOc1ccccc1NC(=O)CCS(=O)(=O)c1ccc(Br)cc1	7.52
CCc1ccc(NC(=O)N(CCN2CCOCC2)Cc2ccc3c(c2)CCCN3CC)cc1	88.1
Cc1cc(O)c(-c2cc(O)c(C)cc2O)cc1O	8.44
O=C(O)COc1ccc2c(c1)O/C(=C\c1ccco1)C2=O	22.5
Cc1ccc2[nH]c(=O)c(C3C(C#N)=C(N)Oc4c3ccc3cccnc43)cc2c1 (stereo unspecified)	24.3
O=C(Nc1nc(-c2ccco2)c(-c2ccco2)s1)c1ccc(F)cc1F	85.4
CCn1cc(CNC(=O)c2ccc(Cl)c([N+](=O)[O-])c2)c(C)n1	15.7
CN(C)c1ccc(N2C(=O)CC(Nc3ccc(N4CCOCC4)cc3)C2=O)cc1 (stereo unspecified)	1.23
COc1ccc(NC(=O)Nc2cccs2)cc1OC	34.5
COc1cc(CN2CCNC(=O)C2CC(=O)N(Cc2nccn2C)C(C)C)cc(OC)c1 (stereo unspecified)	28.3
Oc1ccc(/C=N/NC2=NCCCCC2)c(O)c1	4.9
CC1=C(C(=O)Nc2ccccc2F)C(c2ccsc2)C2=C(CC(c3ccccc3)CC2=O)N1 (stereo unspecified)	1.02
CC(=O)Nc1cc(NC(C)=O)cc(C(=O)N2CCCC3CCCCC32)c1 (stereo unspecified)	9.5
COc1ccc(NC(=S)NCCc2ccccc2OC)c(OC)c1	7.02
N#Cc1c(-c2ccco2)cc(-c2ccccc2)[nH]c1=O	14

SMILES	IC50 [µM]
Cc1ccc2c(c1C)NC(C(=O)O)C1CC=CC21 (stereo unspecified)	0.59
Cc1c(N=C2C=C(Br)C(=O)C(Br)=C2)c(=O)n(-c2ccccc2)n1C	14.1
O=C(COC(=O)c1ccccc1)Nc1ncc([N+](=O)[O-])s1	6.6
CC(=C\c1ccco1)/C=C1/SC(=S)N(CC(=O)O)C1=O	14.7
Cc1ccc(C)n1Cc1ccc(C(=O)O)cc1	1.55
CCc1ccccc1NC(=O)c1cccc(NC(=O)/C=C/c2ccco2)c1	10.8
O=[n+]1c2c(n([O-])c3cc(Br)ccc31)CCC2	19.4
O=C(NN1C(=O)/C(=C/C=C/c2ccco2)SC1=S)c1ccccc1O	1.93
C=C(C)C(=O)Nc1cccc(C2=NOC3(C2)C[C@@H](C(N)=O)N(C(=O)CCCCC)C3)c1 (stereo partly specified)	0.22
COC(=O)C1C(O)C(C)C(O)C(C)(O)/C=C\C=C(/C)C(=O)Nc2c(C)c(OC(C)=O)c3c(c2O)C(=O)C(C)=C2OCOC(=C23)/C(C)=C/C(C)(O)C(O)C(C)C1O (stereo unspecified)	13.6
COc1ccc(NS(=O)(=O)c2cccc(Cl)c2Cl)cc1S(=O)(=O)N1CCCCC1	76.1
Nc1ccccc1NC1=CC(=O)CC(c2ccco2)C1 (stereo unspecified)	49.4
Nc1nc(Sc2ccc([N+](=O)[O-])c3nonc23)c2[nH]cnc2n1	10.9
O=C1N=C(N2CCN(c3ccccc3)CC2)S/C1=C\c1ccco1	4.27
O=C1CC(c2ccco2)CC(O)=C1C=Nc1cc(Cl)cc(Cl)c1 (stereo unspecified)	4.12
COC(=O)c1ccc(=O)c2nc3/c(=C/O)c(O)cc(=O)c3[nH]c12	0.35
CN(CC(=O)Nc1c(Cl)cccc1Cl)C(=O)c1cccc(-n2cccc2)c1	31.3
Cn1c(=O)c2c(ncn2CC(=O)N/N=C/C=C/c2ccco2)n(C)c1=O	6.39
NC(=O)c1ccc(N2CCN(c3ccc(O)cc3)CC2)c([N+](=O)[O-])c1	7.08
COC(=O)\C(C(C)=O)=C(/C=C/C=C/C=C/N(C)C)N(C)C	2.76
CSc1oc(-c2ccco2)nc1S(=O)(=O)c1ccccc1	31.5
COC1=C(Br)C(=O)c2nc(C)ccc2C1=O	13.6
C=CCn1c(COc2ccc(F)cc2)nnc1SCC(=O)NC(=O)NCc1ccco1	40.7

SMILES	IC50 [µM]
Cc1nc2nc(C)c(CCC(=O)N3CCN(c4ccccc4)CC3)c(C)n2n1	59.5
CN(C)c1nc(N)nc(CSc2nc3c(c(=O)n(C)c(=O)n3C)n2Cc2ccccc2F)n1	60.9
COC(=O)Cn1ncn2c(cc3oc(C)cc32)c1=O	71.6
CC(=O)NCc1c(Cl)cccc1-n1cccc1	72.7
O=C(N/N=C/C=C\c1ccco1)c1cccnc1	4.09
O=S(=O)(O)c1cccc2c(N=Nc3ccc(O)c4ncccc34)cccc12	13.6
CCN(CC)CCN1C(=O)c2ccccc2NC1c1ccc(N(C)C)cc1 (stereo unspecified)	90.1
CCOC(=O)NC1(NC2CCCCC2)Oc2ccccc2O1	7.31
Cc1n[nH]c(=S)n(NC(=O)/C=C/C(=O)Nn2c(=S)[nH]nc(C)c2=O)c1=O	2.38
CCOC(=O)C1=C(C)NC(C)=C(C(=O)OCC)C1c1cn(-c2ccccc2)nc1-c1ccco1	31.1
O=[N+]([O-])c1cc2oc3c(c2c(C=NCc2ccncc2)c1O)CCCC3	4.52
c1coc(-c2nc3ccccc3nc2-c2ccco2)c1	1.39
CCOc1cc(N2CCOCC2)c(OCC)cc1NC(C)C(=O)N1CCN(CC)CC1 (stereo unspecified)	23.9
COc1ccccc1NC(=O)c1oc2ccc(C)cc2c1C	98
CC(C)CNC1=CC(=O)CC(c2ccco2)C1 (stereo unspecified)	3.75
S=c1nc(-c2ccc(Br)cc2)oc2c1CCCC2	61.7
CN(CC(=O)Nc1ccc(F)cc1)C(=O)c1cc(-c2ccco2)nc2ccccc12	5.48
CC1=CN2C(=N)/C(=C/c3ccc([N+](=O)[O-])o3)C(=O)N=C2S1	2.91
O=c1cc(-c2ccc(O)c(O)c2)oc2cc(O)c(C3OC(CO)C(O)C(O)C3O)c(O)c12 (stereo unspecified)	12.7
Cc1ccccc1NC(=O)CSc1nnc(-c2ccco2)c(-c2ccco2)n1	1.17
O=C(C1CCCO1)N1CCC2(CC1)OCCO2 (stereo unspecified)	1.39
CC(=O)c1ccc(S(=O)(=O)Nc2cccc(-n3cnnn3)c2)cc1	12.1
O=C(O)C1=NN(c2cc(Cl)c(S(=O)(=O)O)cc2Cl)C(=O)C1	85.7

SMILES	IC50 [µM]
CCn1c(SCC(=O)OC)nc2sc3c(c2c1=O)CCC3	12.7
Cc1ccc(/C=C/C(=O)Nc2ncc(C)s2)o1	7.07
O=C(c1ccc2nc(-c3ccco3)c(-c3ccco3)nc2c1)N1CCN(c2ncccn2)CC1	1.03
COc1ccc(NC(=O)/C(C#N)=C/c2ccc(Br)o2)cc1	14.7
COc1cc2c(cc1OC)C(C)N(C(=O)c1cc3n(n1)C(C(F)(F)F)CC(c1ccco1)N3)CC2 (stereo unspecified)	27.8
CC[n+]1c(/C=C2\C=C(C)CC(C)(C)C2)sc2ccccc21	57.9
CC1=CC(C)(C)N2C(=O)C(=Nc3ccc(O)cc3)c3cccc1c32	3.5
COc1ccc2c(c1)CC1(CN2C)C(=O)NC(=O)N(c2ccc(C)cc2)C1=O (stereo unspecified)	58.9
CN(C)c1ccc(Cc2cc3c(O)ccc(O)c3cc(Cc3ccc(N(C)C)cc3)c2=O)cc1	0.87
CCC(Cc1ccccc1)NC(=O)C1CCN(S(=O)(=O)c2c(C)noc2C)CC1 (stereo unspecified)	91
N#CC1=C(N)C2=C(N3CCCCC3)CCCC2C1(C#N)C#N (stereo unspecified)	1.7
COc1ccc(Oc2nc(C)cc(C)c2C#N)cc1	59.3
CCOC(=O)Cn1nnnc1C(C(C)C)N(Cc1cc2c(C)cc(C)cc2[nH]c1=O)C1CCCC1 (stereo unspecified)	46
Cc1ccc(NC(=O)CCCCCC2NC(=O)NC2C)cc1 (stereo unspecified)	0.71
Cc1cc(S(=O)(=O)N(Cc2ccccn2)Cc2ccco2)ccc1-n1cnnn1	83.6
O=C(O)c1ccc(-n2cccc2/C=C2/NC(=O)N(c3ccccc3)C2=O)cc1	3.34
Oc1cc2c(cc1O)[C@@H](c1ccccc1)CNCC2	48.1
COCCCNC(=O)/C(C#N)=C/c1ccc(OCC(=O)O)c(OC)c1	4.12
CC1(C)CC2(CC(c3ccccc3F)c3ccc(O)c(O)c3O2)NC(=S)N1 (stereo unspecified)	13.7
Cc1ccc(Cn2c(=S)[nH]c3ccc(N4CCOCC4)cc3c2=O)o1	0.61
O=[N+]([O-])c1ccc(N2CCN(c3ccc(Cl)nn3)CC2)c(Cl)c1	99.1
O=C1NC(=S)S/C1=C\c1ccc(SCc2ccco2)o1	0.81
Cc1nc2cc(-c3ccsc3-n3c(C)ccc3C)[nH]n2c(=O)c1Cl	2.92

SMILES	IC50 [µM]
COc1cc(CNc2ccc(O)cc2)cc(Br)c1OCc1ccccc1	3.04
O=C1CCCC(O)=C1C=Nc1ccc(O)cc1	35.4
O=C(N/N=C/c1ccc(O)c(O)c1O)/C(=C/c1ccc([N+](=O)[O-])cc1)NC(=O)c1ccccc1	0.87
CC(C)(C)c1ccc(-c2nnc(SCCC#N)n2C2CCCC2)cc1	86.7
O=C(CN1CCN(S(=O)(=O)c2ccc(F)cc2)CC1)c1ccc(O)c(O)c1	20.1
CCc1cc(=O)oc2cc(C)c(CN3CCCC3)c(O)c12	4.07
CCc1ccccc1N(CC(=O)NCCSCc1ccco1)S(C)(=O)=O	78.4
O=S(=O)(O)c1cc(Cl)cc(N=Nc2ccc(O)cc2O)c1O	49.4
Cc1cc(-c2csc(NC(=O)c3ccc(C#N)cc3)n2)c(C)n1Cc1ccco1	3.35
N=C1S/C(=C\c2ccco2)C(=O)N1c1ccc2c(c1)OCO2	9.26
Cc1cc(/C=C2\SC(=S)NC2=O)c(C)n1C	36.2
Oc1c(CN2CCOCC2)cc(CN2CCOCC2)c(O)c1O	9.18
O=C1NC(=O)C(=Cc2ccc(SC3CCCCC3)o2)C(=O)N1	29
CC(N=Cc1cccc(O)c1O)c1ccccc1 (stereo unspecified)	2.61
O=C1N=C(N2CCOCC2)SC1=Cc1ccco1	92.5
CCCCOc1ccccc1C1NC(=O)NC(C)=C1C(=O)OCc1ccco1 (stereo unspecified)	57.3
CCN(CC)c1ccc(C(=C2C=CC(=[N+](CC)CC)C=C2)c2ccccc2)cc1	11.8
Cc1c(Cl)cccc1NS(=O)(=O)c1ccc2c(c1)C1C=CCC1C(c1ccc(C(=O)O)cc1)N2 (stereo unspecified)	2.54
COc1ccc(S(=O)(=O)c2c(N)n(Cc3ccco3)c3nc4ccccc4nc23)cc1	3.47
